Counter-ions that a name gives are not always drawn. Like-named read-outs stand apart in the source and are kept apart here.

In this test the target is T1, Neutrophil Lipoxygenase (Cavia porcellus, UniProt A0A286X958).
T1 construct: endogenous in cells; host or cells: guinea pig peritoneal neutrophils
T1 sequence (A0A286X958 1-674): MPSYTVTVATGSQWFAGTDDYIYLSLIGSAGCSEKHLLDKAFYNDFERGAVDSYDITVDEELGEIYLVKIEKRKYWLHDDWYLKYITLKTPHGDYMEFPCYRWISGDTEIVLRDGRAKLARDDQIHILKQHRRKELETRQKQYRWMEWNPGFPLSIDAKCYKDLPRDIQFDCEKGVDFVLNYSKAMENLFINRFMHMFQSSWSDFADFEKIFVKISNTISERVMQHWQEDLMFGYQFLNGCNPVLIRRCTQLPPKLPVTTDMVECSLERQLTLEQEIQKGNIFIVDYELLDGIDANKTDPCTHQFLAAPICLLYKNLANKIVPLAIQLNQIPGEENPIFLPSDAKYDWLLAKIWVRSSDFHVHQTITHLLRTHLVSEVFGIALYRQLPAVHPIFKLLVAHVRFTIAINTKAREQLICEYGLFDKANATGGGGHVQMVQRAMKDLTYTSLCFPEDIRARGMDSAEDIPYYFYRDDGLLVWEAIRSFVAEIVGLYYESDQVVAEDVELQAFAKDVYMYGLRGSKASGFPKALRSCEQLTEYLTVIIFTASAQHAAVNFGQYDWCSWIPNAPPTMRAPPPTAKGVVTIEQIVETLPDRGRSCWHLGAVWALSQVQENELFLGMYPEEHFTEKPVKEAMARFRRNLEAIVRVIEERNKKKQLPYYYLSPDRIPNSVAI
The test is described as follows: Inhibition of Neutrophil Lipoxygenase from Immunologically Stimulated Guinea Pig Neutrophiles (LTB4 and 5-HETE). Format: cell-based. The following applies: 10 μg/ml, 100 μM arachidonic acid and 20 μM A23187, the lower the percentage, the more active. The protocol: In this assay 3×10^7 peritoneal neutrophils derived from guinea pigs were incubated at 37° C. in Dulbeccos buffer containing 50 mM tris buffer (pH 7.4). Five minutes before the addition of 100 μM arachidonic acid and 20 μM calcium ionophore (A23187), control vehicle or the test compounds were added to the neutrophils at a concentration of 10 μg/ml. Three minutes after the addition of arachidonic acid and calcium ionophore the total lipid was partitioned into chloroform after adjusting the pH to 3 with citric acid and the addition of equal parts of methanol and chloroform. The 5-HETE and LTB4 were resolved by HPLC using a 5 μM, 4×25 cm octadecyl silica column (IBM Instruments) with 70-80% methanol in water adjusted to pH 3.0 with acetic acid. As the mobile phase was pumped at 1.0 ml/minute, LTB4 and 5-HETE were detected by absorbance at 270 and 236 nm, respectively. LTB4 and 5-HETE were quantitated by comparison with the control and the results were expressed as a percent of control.

Turning to `O=C1C(Cl)=C(N2CCN(c3ccc4ccccc4n3)CC2)C(=O)c2ccccc21` [Example 10, 2-chloro-3-[4-(2-quinolinyl)-1-piperazinyl]-1,4-naphthalenedione, hydrochloride], the remaining activity at 10 µg/mL reads like this: (read-out: 5-HETE, % of Control) 0%; (read-out: LTB4, % of Control) 0%. For the compound `O=C1C(Cl)=C(N2CCN(Cc3ccc4c(c3)OCO4)CC2)C(=O)c2ccccc21` [Example 11, 2-[4-(1,3-benzodioxol-5-ylmethyl)-1-piperazinyl]-3-chloro-1,4-naphthalenedione, hydrochloride], the remaining activity at 10 µg/mL (read-out: 5-HETE, % of Control) stood at 0% and the remaining activity at 10 µg/mL (read-out: LTB4, % of Control) came to 0%.

Regarding `O=C1C(Cl)=C(N2CCN(c3ncccn3)CC2)C(=O)c2ccccc21` [Example 12, 2-chloro-3-[4-(2-pyrimidinyl)-1-piperazinyl]-1,4-naphthalenedione], for the setting “read-out: 5-HETE, % of Control”, the remaining activity at 10 µg/mL worked out at 34.3%. With `CC(=O)NC1=C(N2CCN(c3nc4ccccc4s3)CC2)C(=O)c2ccccc2C1=O` [Example 23, N-[3-[4-(2-benzothiazolyl)-1-piperazinyl]-1,4-dihydro-1,4-dioxo-2-naphthalenyl]acetamide], the remaining activity at 10 µg/mL (read-out: 5-HETE, % of Control) came to 0% and the remaining activity at 10 µg/mL (read-out: LTB4, % of Control) came to 0%. As for `CC(=O)NC1=C(N2CCN(c3cccc(C(F)(F)F)c3)CC2)C(=O)c2ccccc2C1=O` [Example 28, N-[1,4-dihydro-1,4-dioxo-3-[4-[3-(trifluoromethyl)phenyl]-1-piperazinyl]-2-naphthalenyl]acetamide], where the note is “read-out: 5-HETE, % of Control”, the remaining activity at 10 µg/mL turned out to be 0.3%. Turning to `O=C1C(Cl)=C(N2CCN(C(=O)Nc3ccccc3Cl)CC2)C(=O)c2ccccc21` [Example 29, 4-(3-Chloro-1,4-dihydro-1,4-dioxo-2-naphthalenyl)-N-(2-chlorophenyl)-1-piperazinecarboxamide], the remaining activity at 10 µg/mL worked out at 19.9% (read-out: 5-HETE, % of Control) and 22.2% (read-out: LTB4, % of Control). As for `O=C1C(Cl)=C(N2CCN(C(=O)Nc3ccccc3F)CC2)C(=O)c2ccccc21` [Example 30, 4-(3-chloro-1,4-dihydro-1,4-dioxo-2-naphthalenyl)-N-(2-fluorophenyl)-1-piperazinecarboxamide], the remaining activity at 10 µg/mL was 2% (read-out: 5-HETE, % of Control) and 0% (read-out: LTB4, % of Control). Consider `O=C1C(Cl)=C(N2CCN(C(=O)Nc3cccc(C(F)(F)F)c3)CC2)C(=O)c2ccccc21` [Example 31, 4-(3-chloro-1,4-dihydro-1,4-dioxo-2-naphthalenyl)-N-[3-(trifluoromethyl)phenyl]-1-piperazinecarboxamide], for which, for the setting “read-out: 5-HETE, % of Control”, the remaining activity at 10 µg/mL worked out at 0%. On the same count and under the same terms, next, `O=C1C(Cl)=C(N2CCN(C(=O)Nc3ccc(Cl)cc3)CC2)C(=O)c2ccccc21` [Example 32, 4-(3-chloro-1,4-dihydro-1,4-dioxo-2-naphthalenyl)-N-(4-chlorophenyl)-1-piperazinecarboxamide]: 1.4%. For the compound `CCCCc1ccc(C(=O)N2CCN(C3=C(Cl)C(=O)c4ccccc4C3=O)CC2)cc1` [Example 35, 1-(4-butylbenzoyl)-4-(3-chloro-1,4-dihydro-1,4-dioxo-2-naphthalenyl)piperazine], the remaining activity at 10 µg/mL (read-out: 5-HETE, % of Control) worked out at 13.7% and the remaining activity at 10 µg/mL (read-out: LTB4, % of Control) came out at 23.2%. Regarding `CCOC(=O)N1CCN(C2=C(C)C(=O)c3ccccc3C2=O)CC1` [Example 41, 4-(1,4-Dihydro-3-methyl-1,4-dioxo-2-naphthalenyl)-1-piperazinecarboxylic acid, ethyl ester], the remaining activity at 10 µg/mL (read-out: 5-HETE, % of Control) was 2.2%.

As to `CC1=C(N2CCN(c3nc4ccccc4s3)CC2)C(=O)c2ccccc2C1=O` [Example 42, 2-[4-(2-benzothiazolyl)-1-piperazinyl]-3-methyl-1,4-naphthalenedione], the remaining activity at 10 µg/mL runs as follows: (read-out: 5-HETE, % of Control) 0.8%; (read-out: LTB4, % of Control) 20.8%. For `CC1=C(N2CCN(Cc3ccccc3)CC2)C(=O)c2ccccc2C1=O` [Example 43, 2-methyl-3-[4-(phenylmethyl)-1-piperazinyl]-1,4-naphthalenedione] the same measures were 0.7% and 4.8%. On to `CC1=C(N2CCN(c3ccccn3)CC2)C(=O)c2ccccc2C1=O` [Example 44, 2-methyl-3-[4-(2-pyridinyl)-1-piperazinyl]-1,4-naphthalenedione], for which the remaining activity at 10 µg/mL by setting is: (read-out: 5-HETE, % of Control) 0%; (read-out: LTB4, % of Control) 0%. Consider `CC1=C(N2CCN(c3cccc(C(F)(F)F)c3)CC2)C(=O)c2ccccc2C1=O` [Example 45, 2-methyl-3-[4-[3-(trifluoromethyl)phenyl]-1-piperazinyl]-1,4-naphthalenedione], for which the remaining activity at 10 µg/mL (read-out: 5-HETE, % of Control) is 0%. For `O=C1C(Cl)=C(N2CCCN(c3nc4ccccc4s3)CC2)C(=O)c2ccccc21` [Example 52, 2-[4-(2-Benzothiazolyl)hexahydro-1H-diazepin-1-yl]-3-chloro-1,4-naphthalenedione], the remaining activity at 10 µg/mL (read-out: 5-HETE, % of Control) stood at 1.1%. Consider `CC1=C(N2CCN(C(=O)Nc3ccc(Cl)cc3)CC2)C(=O)c2ccccc2C1=O` [Example 54, N-(4-Chlorophenyl)-4-(1,4-dihydro-3-methyl-1,4-dioxo-2-naphthalenyl)-1-piperazinecarboxamide], for which the remaining activity at 10 µg/mL (read-out: 5-HETE, % of Control) was found to be 8.8%. Regarding `O=C1C(Cl)=C(N2CCN(c3nc4ccccc4o3)CC2)C(=O)c2ccccc21` [Example 55, 2-[4-(2-Benzoxazolyl)-1-piperazinyl]-3-chloro-1,4-naphthalenedione], the remaining activity at 10 µg/mL worked out at 19.6% (read-out: 5-HETE, % of Control) and 13.5% (read-out: LTB4, % of Control). For `CC1CN(C2=C(Cl)C(=O)c3ccccc3C2=O)CCN1C(=O)Nc1cccc(Cl)c1` (stereo not drawn) [Example 58, 4-(3-Chloro-1,4-dihydro-1,4-dioxo-2-naphthalenyl)-N-(3-chlorophenyl)-2-methyl-1-piperazinecarboxamide], the remaining activity at 10 µg/mL is, setting by setting: (read-out: 5-HETE, % of Control) 25.7%; (read-out: LTB4, % of Control) 15.2%.

(Values after US4686220A, “Substituted 2-[b-substituted-amino)-ethylamino]-1,4-naphthalenediones for treating asthma, allergic diseases and inflammation in warm-blooded animals” (American Cyanamid Company, priority 1985, dated 1987).)
